# Reference: US20210386367A1, “DEVICES AND SYSTEMS FOR GASTROINTESTINAL MICROBIOME DETECTION AND MANIPULATION” (Progenity, Inc., priority 2018, published 2021)
# Entries after “also recorded” stand apart in the source; their conditions may differ. Read-outs that look alike come from different tables or passages of the source.
# Experiments:
# [1] = test system: SIBO Bacteria; conditions: cited from earlier work
# [2] = test system: S. pneumoniae ATCC 49619; test: Broth microdilution MIC (time-kill study); assay type: cell-based, Streptococcus pneumoniae
# [3] = test system: E. coli ATCC 35218 (TEM-1 β-lactamase producer); test: Broth microdilution MIC (time-kill study); assay type: cell-based, Escherichia coli
# [4] = test system: E. coli ATCC 25922; test: Broth microdilution MIC (time-kill study); assay type: cell-based, Escherichia coli
# [5] = test system: S. pneumoniae ATCC 49619; conditions: cited from earlier work
# [6] = test system: B. vulgatus ATCC 8482; test: Time-kill assay; assay type: cell-based, Bacteroides vulgatus; conditions: 2×, 4×, 8× MIC; 2, 6, 24, 48 hr
# [7] = test system: Clostridium spp.; test: Agar dilution MIC, 10 clinical isolates; assay type: cell-based
# [8] = test system: Pseudomonas aeruginosa; test: Broth microdilution MIC, 50 clinical isolates; assay type: cell-based
# In short: (§1)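 Medium: cation-adjusted MHB, plus 3% lysed horse blood for streptococci, which were incubated with CO2 planchets. Final inoculum approx. 5×10^5 CFU/mL; serial two-fold drug dilutions per CLSI.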
# [9] = test system: Enterobacter aerogenes; test: Broth microdilution MIC, 50 clinical isolates; assay type: cell-based
# In short: as §1
# [10] = test system: Proteus mirabilis; test: Broth microdilution MIC, 50 clinical isolates; assay type: cell-based
# In short: as §1
# [11] = 10 Clostridium spp. clinical isolates
compound,measurement,setting,value
C[C@@H](O)[C@H]1C(=O)N2C(C(=O)O)=C(S[C@@H]3CN[C@H](C(=O)N(C)C)C3)[C@H](C)[C@H]12 [meropenem],activity against SIBO organisms,[1],active against SIBO organisms
same,MIC,[2]; S. pneumoniae ATCC 49619,0.06 µg/mL
same,MIC,"[2]; Streptococcus pneumoniae, ATCC49619, broth microdilution, read-out: MIC",0.06 µg/mL
same,MIC,[3]; E. coli ATCC 35218,0.015 µg/mL
same,MIC,"[3]; Escherichia coli, ATCC35218",0.015 µg/mL
same,MIC,[4]; E. coli ATCC 25922,0.015 µg/mL
same,MIC,"[4]; Escherichia coli, ATCC25922, broth microdilution, read-out: MIC",0.015 µg/mL
same,CLSI QC range (MIC),[5],(0.03-0.25)^1 μg/mL
same,time-kill kinetics outcome (bactericidal = ≥3 log reduction in CFU per mL),[6],bactericidal effect at 24 and 48 hr at 4× and 8×MIC
same,isolates susceptible,[7],One hundred
same,relative activity among drugs tested,[7],meropenem and metronidazole had similar activity; also recorded: most active agent
same,% S,[7]; [11],100%
same,MIC50,[7]; [11],1 µg/mL
same,MIC90,[7]; [11],2 µg/mL
same,MIC range,[7]; [11],0.06 to 2 µg/mL
same,MIC50,[7]; Clostridium,1 µg/mL
same,MIC90,[7]; Clostridium,2 µg/mL
same,Mode,"[7]; modal MIC, 10 Clostridium spp. clinical isolates",1 µg/mL
same,% I,[8],10%
same,% R,[8],Eighteen
same,% S,[8],72%
same,Mode,[8],0.25 µg/mL
same,relative activity among drugs tested,[8],most active drug evaluated; also recorded: most active agent
same,Cumulative percentage of isolates inhibited at MIC,[8]; 0.03 μg/mL,2.0%
same,Number of test isolates at MIC,[8]; 0.03 μg/mL,1
same,Cumulative percentage of isolates inhibited at MIC,[8]; 0.06 μg/mL,6.0%
same,Number of test isolates at MIC,[8]; 0.06 μg/mL,2
same,Cumulative percentage of isolates inhibited at MIC,[8]; 0.5 μg/mL,56.0%
same,Number of test isolates at MIC,[8]; 0.5 μg/mL,5
same,Cumulative percentage of isolates inhibited at MIC,[8]; 1 μg/mL,66.0%
same,Number of test isolates at MIC,[8]; 1 μg/mL,5
same,Cumulative percentage of isolates inhibited at MIC,[8]; 2 μg/mL,72.0%
same,Number of test isolates at MIC,[8]; 2 μg/mL,3
same,Cumulative percentage of isolates inhibited at MIC,[8]; 4 μg/mL,84.0%
same,Number of test isolates at MIC,[8]; 4 μg/mL,6
same,Cumulative percentage of isolates inhibited at MIC,[8]; 8 μg/mL,92.0%
same,Number of test isolates at MIC,[8]; 8 μg/mL,4
same,Cumulative percentage of isolates inhibited at MIC,[8]; >8 μg/mL,100.0%
same,Number of test isolates at MIC,[8]; >8 μg/mL,4
same,MIC50,"[8]; Pseudomonas aeruginosa, read-out: MIC50",0.5 µg/mL
same,MIC90,"[8]; Pseudomonas aeruginosa, read-out: MIC90",8 µg/mL
same,% I,[8]; listed as MEM,10%
same,% R,[8]; listed as MEM,18%
same,% I,[9],2%
same,% S,[9],Ninety-eight
same,MIC range,[9],0.015 to 2 µg/mL
same,Mode,[9],0.03 µg/mL
same,relative activity among drugs tested,[9],most active drug evaluated; also recorded: most active agent
same,Cumulative percentage of isolates inhibited at MIC,[9]; 0.015 μg/mL,36.0%
same,Number of test isolates at MIC,[9]; 0.015 μg/mL,18
same,Cumulative percentage of isolates inhibited at MIC,[9]; 0.03 μg/mL,80.0%
same,Number of test isolates at MIC,[9]; 0.03 μg/mL,22
same,Cumulative percentage of isolates inhibited at MIC,[9]; 0.06 μg/mL,94.0%
same,Number of test isolates at MIC,[9]; 0.06 μg/mL,7
same,Cumulative percentage of isolates inhibited at MIC,[9]; 1 μg/mL,98.0%
same,Number of test isolates at MIC,[9]; 1 μg/mL,1
same,Cumulative percentage of isolates inhibited at MIC,[9]; 2 μg/mL,100.0%
same,Number of test isolates at MIC,[9]; 2 μg/mL,1
same,MIC50,"[9]; Klebsiella aerogenes, read-out: MIC50",0.03 µg/mL
same,MIC90,"[9]; Klebsiella aerogenes, read-out: MIC90",0.06 µg/mL
same,Cumulative percentage of isolates inhibited at MIC,[9]; […],96.0%
same,Number of test isolates at MIC,[9]; […],1
same,% I,[9]; listed as MEM,2%
same,% S,[9]; listed as MEM,98%
same,% S,[10],98%
same,MIC range,[10],≤0.008 to 2 µg/mL
same,Mode,[10],0.06 µg/mL
same,Cumulative percentage of isolates inhibited at MIC,[10]; 0.03 μg/mL,38.0%
same,Number of test isolates at MIC,[10]; 0.03 μg/mL,18
same,Cumulative percentage of isolates inhibited at MIC,[10]; 0.06 μg/mL,82.0%
same,Number of test isolates at MIC,[10]; 0.06 μg/mL,2
same,Cumulative percentage of isolates inhibited at MIC,[10]; 2 μg/mL,100.0%
same,Number of test isolates at MIC,[10]; 2 μg/mL,1
same,MIC50,"[10]; Proteus mirabilis, read-out: MIC50",0.06 µg/mL
same,MIC90,"[10]; Proteus mirabilis, read-out: MIC90",0.12 µg/mL
same,% I,[10]; listed as MEM,2% ^
same,Cumulative percentage of isolates inhibited at MIC,[10]; ≤0.008 μg/mL,2.0%
same,Number of test isolates at MIC,[10]; ≤0.008 μg/mL,1
